Results: article PMC4684245, “Diversity of ABBA Prenyltransferases in Marine Streptomyces sp. CNQ-509: Promiscuous Enzymes for the Biosynthesis of Mixed Terpenoid Compounds” (PLoS ONE, 2015)

Legend:
Assay in all cases: HPLC-UV and LC-MS product detection
Format in all cases: biochemical
CnqP4 = molecular target: T1, CnqP4 (Streptomyces sp. CNQ-509, UniProt A0A0F7NDN9); conditions: […] aromatic substrate, […] GPP, […] MgCl2, Tris-HCl pH […] °C, […] h
T1 construct: gene AA958_24270; full-length, 303 aa; N-terminal His8 tag (pHis8) kept; E. coli Rosetta2(DE3)pLysS
T1 sequence (A0A0F7NDN9 1-303): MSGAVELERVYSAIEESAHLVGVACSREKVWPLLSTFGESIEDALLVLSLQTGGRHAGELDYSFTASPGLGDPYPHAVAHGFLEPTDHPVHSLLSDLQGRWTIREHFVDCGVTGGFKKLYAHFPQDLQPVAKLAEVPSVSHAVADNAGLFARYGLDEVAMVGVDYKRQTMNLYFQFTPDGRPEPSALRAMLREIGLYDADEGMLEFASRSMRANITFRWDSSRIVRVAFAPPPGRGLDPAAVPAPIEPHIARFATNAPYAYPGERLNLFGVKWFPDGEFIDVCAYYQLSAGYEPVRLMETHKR

CnqP3 = molecular target: T2, CnqP3 (Streptomyces sp. CNQ-509, UniProt A0A0F7NDP3); conditions: […] °C, […] h
T2 construct: gene AA958_24325; full-length, 305 aa; N-terminal His8 tag (pHis8) kept; E. coli Rosetta2(DE3)pLysS
T2 sequence (A0A0F7NDP3 1-305): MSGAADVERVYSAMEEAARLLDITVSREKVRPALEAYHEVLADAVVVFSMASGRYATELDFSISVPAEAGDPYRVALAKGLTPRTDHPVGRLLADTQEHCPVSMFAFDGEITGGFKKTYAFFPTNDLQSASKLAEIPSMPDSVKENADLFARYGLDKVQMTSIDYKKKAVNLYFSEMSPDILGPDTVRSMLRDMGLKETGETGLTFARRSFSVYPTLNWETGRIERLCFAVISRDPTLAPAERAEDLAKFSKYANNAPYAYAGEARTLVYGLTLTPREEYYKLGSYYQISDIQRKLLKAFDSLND

CnqP6 = molecular target: T3, CnqP6 (Streptomyces sp. CNQ-509, UniProt A0A0F7N6A5); conditions: […] °C, […] h
T3 construct: gene AA958_12635; full-length, 300 aa; N-terminal His8 tag (pHis8) kept; E. coli Rosetta2(DE3)pLysS
T3 sequence (A0A0F7N6A5 1-300): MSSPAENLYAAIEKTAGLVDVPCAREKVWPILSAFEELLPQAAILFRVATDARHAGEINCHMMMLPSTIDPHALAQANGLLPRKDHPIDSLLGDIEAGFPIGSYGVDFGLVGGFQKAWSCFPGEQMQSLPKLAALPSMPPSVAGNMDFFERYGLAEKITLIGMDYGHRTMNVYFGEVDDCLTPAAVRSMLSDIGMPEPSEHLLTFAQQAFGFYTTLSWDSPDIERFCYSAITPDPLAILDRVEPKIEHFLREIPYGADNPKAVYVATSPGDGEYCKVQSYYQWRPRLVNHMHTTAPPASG

[1] = […] aromatic substrate, […] GPP, […] MgCl2, Tris-HCl pH […]

Oc1ccc2ccc(O)cc2c1 [2,7-DHN]
HPLC-UV and LC-MS product detection (CnqP4): we found monogeranylated products for CnqP2, CnqP3 and CnqP4

O=C1C(O)=CC(=O)c2c(O)cc(O)cc21 [flaviolin]
HPLC-UV and LC-MS product detection (CnqP3; [1]): Only CnqP3 accepted flaviolin as a substrate.

CC(C)=CCC/C(C)=C/COP(=O)(O)OP(=O)(O)O [GPP]
HPLC-UV and LC-MS product detection (CnqP6; with genistein ([…]), […] GPP, […] MgCl2, Tris-HCl pH […]): genistein was converted with GPP by the prenyltransferases CnqP2, CnqP3 and CnqP6
HPLC-UV and LC-MS product detection (CnqP3; with flaviolin ([…]), […] GPP, […] MgCl2, Tris-HCl pH […]): Incubation with GPP resulted in the production of a new compound

O=c1c(-c2ccc(O)cc2)coc2cc(O)cc(O)c12 [genistein]
HPLC-UV and LC-MS product detection (CnqP6; [1]): genistein was converted with GPP by the prenyltransferases CnqP2, CnqP3 and CnqP6
